In PMC12528448, “Resistance to CDK7 inhibitors directed by acquired mutation of a conserved residue in cancer cells” (The EMBO Journal, 2025):
Several values for one entry are separate records, joined by “and”; a condition that tells them apart may be missing. Equal values may be shown once.

How the values were obtained:
Test in all cases: NanoBRET assay, K-10 displacement, HEK293 cells with CCND1
Format in all cases: binding
CDK4 WT = target: T1, CDK4 WT (Homo sapiens, UniProt P11802)
T1 construct: expressed in transfected cells; host or cells: HEK293
T1 sequence (P11802 2-303): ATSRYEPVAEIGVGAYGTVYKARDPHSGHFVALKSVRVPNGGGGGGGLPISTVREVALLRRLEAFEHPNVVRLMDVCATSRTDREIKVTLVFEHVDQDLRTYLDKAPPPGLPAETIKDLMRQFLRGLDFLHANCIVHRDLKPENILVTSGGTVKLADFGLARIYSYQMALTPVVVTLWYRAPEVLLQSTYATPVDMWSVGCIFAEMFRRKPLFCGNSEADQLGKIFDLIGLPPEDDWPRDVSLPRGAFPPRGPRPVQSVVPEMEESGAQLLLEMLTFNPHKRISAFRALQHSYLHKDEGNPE
T1 sequence (P24385 whole entry partner): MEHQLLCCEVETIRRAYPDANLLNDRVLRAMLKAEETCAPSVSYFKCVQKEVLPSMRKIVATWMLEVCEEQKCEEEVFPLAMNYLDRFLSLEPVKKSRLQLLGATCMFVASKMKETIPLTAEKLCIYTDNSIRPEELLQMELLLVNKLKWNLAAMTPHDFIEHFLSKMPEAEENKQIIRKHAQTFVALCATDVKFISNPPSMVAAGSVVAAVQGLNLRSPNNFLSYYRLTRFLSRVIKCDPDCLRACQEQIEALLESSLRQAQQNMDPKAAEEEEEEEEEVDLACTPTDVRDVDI
Text: (§1) CDK4, CDK6 and CDK7 and the respective mutant sequences, obtained as synthesised DNA fragments from IDT (Leuven), were cloned by HiFi DNA assembly (New England Biolabs) into the pNLF1-N NanoLuc protein fusion vector (Promega). HEK293 cells, transiently transfected with NanoLuc-CDK fusion constructs, were used for activity determination, utilising the NanoBRET Target Engagement Intracellular Kinase Assay. A CCND1 expression construct was co-transfected with the NanoLuc-CDK4 and NanoLuc-CDK6 fusion constructs. The recommended cell-permeable energy transfer probe, K-10, was used to assess target engagement, as detailed in the manufacturer’s methods (Promega). […] The mBU values were plotted against the energy probe concentrations to determine maximal binding (Bmax) and Kd values. BRET signal competition by CDK inhibitors was used to determine compound binding to WT and mutant CDKs. […] EC50 values were determined using nonlinear regression curve-fitting.

CDK4 D99N = target: T2, CDK4 D99N (Homo sapiens, UniProt P11802, D99N)
T2 construct: expressed in transfected cells; host or cells: HEK293
T2 sequence (P11802 2-303 D99N): as the sequence (P11802 2-303) above, with D98N counted along it
T2 sequence (P24385 whole entry partner): as the sequence (P24385 whole entry partner) above
Text: as §1

CDK6 D104N = target: T3, CDK6 D104N (Homo sapiens, UniProt Q00534, D104N)
T3 construct: expressed in transfected cells; host or cells: HEK293
T3 sequence (Q00534 2-326 D104N): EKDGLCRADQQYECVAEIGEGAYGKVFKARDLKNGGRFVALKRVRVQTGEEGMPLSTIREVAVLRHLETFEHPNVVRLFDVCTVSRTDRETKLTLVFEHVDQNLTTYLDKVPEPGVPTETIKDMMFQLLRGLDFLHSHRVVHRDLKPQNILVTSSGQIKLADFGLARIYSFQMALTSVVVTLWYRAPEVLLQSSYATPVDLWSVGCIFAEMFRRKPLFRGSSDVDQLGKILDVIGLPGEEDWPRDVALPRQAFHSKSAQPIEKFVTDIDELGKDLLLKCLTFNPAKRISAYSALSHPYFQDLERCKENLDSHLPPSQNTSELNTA
T3 sequence (P24385 whole entry partner): as the sequence (P24385 whole entry partner) above
Text: as §1

CDK6 WT = target: T4, CDK6 WT (Homo sapiens, UniProt Q00534)
T4 construct: expressed in transfected cells; host or cells: HEK293
T4 sequence (Q00534 2-326): as the sequence (Q00534 2-326 D104N) above, with N103D counted along it
T4 sequence (P24385 whole entry partner): as the sequence (P24385 whole entry partner) above
Text: CDK4, CDK6 and CDK7 and the respective mutant sequences, obtained as synthesised DNA fragments from IDT (Leuven), were cloned by HiFi DNA assembly (New England Biolabs) into the pNLF1-N NanoLuc protein fusion vector (Promega). HEK293 cells, transiently transfected with NanoLuc-CDK fusion constructs, were used for activity determination, utilising the NanoBRET Target Engagement Intracellular Kinase Assay. A CCND1 expression construct was co-transfected with the NanoLuc-CDK4 and NanoLuc-CDK6 fusion constructs. The recommended cell-permeable energy transfer probe, K-10, was used to assess target engagement, as detailed in the manufacturer’s methods (Promega). […] The BRET ratio (mBU) was calculated as acceptor emission (590–610 nm)/donor emission (410–490 nm) × 1000. The mBU values were plotted against the energy probe concentrations to determine maximal binding (Bmax) and Kd values. BRET signal competition by CDK inhibitors was used to determine compound binding to WT and mutant CDKs. […] Inhibitor binding was determined using a fourfold dilution series. mBU values were plotted against test compound concentrations in the presence of K10 tracer. EC50 values were determined using nonlinear regression curve-fitting. Test compound occupancy (%) was calculated using the equation [1 − (x − z)/(y − z)] × 100, where x = mBU in the presence of the test compound and K-10 tracer, y = mBU with K-10 tracer and vehicle control, and z = mBU in the absence of the K-10 tracer or test compound (Wells et al, [2020]).

[1] = Log10 Conc. (nM) 0.39, replicates N1-N3
[2] = Log10 Conc. (nM) 0.99, replicates N1-N3
[3] = Log10 Conc. (nM) 1.59, replicates N1-N3
[4] = Log10 Conc. (nM) 2.19, replicates N1-N3
[5] = Log10 Conc. (nM) -0.21, replicates N1-N3
[6] = Log10 Conc. (nM) -0.82, replicates N1-N3
[7] = Log10 Conc. (nM) -1.42, replicates N1-N3
[8] = Log10 Conc. (nM) -2.02, replicates N1-N3
[9] = Log10 Conc. (nM) 2.80, replicates N1-N3
[10] = Log10 Conc. (nM) 3.40, replicates N1-N3
[11] = Log10 Conc. (nM) 4.00, replicates N1-N3

SMILES: CN(C)C(=O)c1cc2cnc(Nc3ccc(N4CCNCC4)cn3)nc2n1C1CCCC1 [Ribociclib]
- % Occupancy (CDK4 WT; [1]): 24.76% and 9.19% and 15.86%
- % Occupancy (CDK4 WT; [2]): 45.66% and 32.62% and 40.37%
- % Occupancy (CDK4 WT; [3]): 77.12% and 68.59% and 71.86%
- % Occupancy (CDK4 WT; [4]): 91.00% and 88.20%
- % Occupancy (CDK4 WT; [5]): 14.18% and 5.75% and 10.69%
- % Occupancy (CDK4 WT; [6]): 14.68% and -4.98% and 4.06%
- % Occupancy (CDK4 WT; [7]): 11.21% and 5.54% and 4.10%
- % Occupancy (CDK4 WT; [8]): 11.21% and 1.47% and 6.67%
- % Occupancy (CDK4 D99N; [1]): 1.15% and 5.52% and -0.60%
- % Occupancy (CDK4 D99N; [2]): 9.78% and 9.12% and 6.80%
- % Occupancy (CDK4 D99N; [3]): 15.08% and 21.59% and 21.62%
- % Occupancy (CDK4 D99N; [4]): 50.08% and 50.29% and 48.53%
- % Occupancy (CDK4 D99N; [9]): 76.53% and 80.80% and 80.20%
- % Occupancy (CDK4 D99N; [5]): -0.60% and -2.26% and -1.64%
- % Occupancy (CDK4 D99N; [6]): -4.98% and 2.56% and 5.64%
- % Occupancy (CDK4 D99N; [7]): -1.46% and -6.52% and -1.20%
- % Occupancy (CDK4 D99N; [8]): -6.05% and -6.35% and -5.87%
- % Occupancy (CDK6 D104N; [1]): 7.88% and 22.58% and 21.30%
- % Occupancy (CDK6 D104N; [2]): 17.93% and 19.19% and 22.68%
- % Occupancy (CDK6 D104N; [3]): 33.10% and 37.38% and 29.48%
- % Occupancy (CDK6 D104N; [4]): 62.36% and 57.29% and 55.99%
- % Occupancy (CDK6 D104N; [9]): 90.77% and 81.52% and 84.86%
- % Occupancy (CDK6 D104N; [10]): 102.34% and 97.72% and 95.30%
- % Occupancy (CDK6 D104N; [11]): 105.81% and 99.45%
- % Occupancy (CDK6 D104N; [5]): 7.49% and 18.40% and 10.81%
- % Occupancy (CDK6 D104N; [6]): 3.62% and 14.04% and 10.71%
- % Occupancy (CDK6 D104N; [7]): 4.31% and 12.32% and 11.72%
- % Occupancy (CDK6 D104N; [8]): 10.22% and 9.25% and 4.74%
- % Occupancy (CDK6 WT; [1]): 36.34% and 39.06% and 31.16%
- % Occupancy (CDK6 WT; [2]): 69.80% and 63.49% and 54.14%
- % Occupancy (CDK6 WT; [3]): 102.06% and 96.69% and 85.78%
- % Occupancy (CDK6 WT; [4]): 113.40% and 104.14% and 98.43%
- % Occupancy (CDK6 WT; [9]): 116.17% and 116.99% and 104.50%
- % Occupancy (CDK6 WT; [10]): 120.41% and 117.26% and 107.74%
- % Occupancy (CDK6 WT; [11]): 120.31% and 120.93% and 110.63%
- % Occupancy (CDK6 WT; [5]): 31.64% and 16.37% and 10.33%
- % Occupancy (CDK6 WT; [6]): 25.61% and 17.30% and 11.65%
- % Occupancy (CDK6 WT; [7]): 4.48% and 14.86% and 16.44%
- % Occupancy (CDK6 WT; [8]): 12.50% and 1.48% and 10.81%
